Experimental findings from US20250289785A1, “INDOLE DERIVATIVE, METHOD FOR PREPARING SAME, AND USE THEREOF” (MITOIMMUNE THERAPEUTICS INC., priority 2021, published 2025) are described below.

Some results are limits rather than exact numbers.

This assay deals with H9C2 cells. Description: Cell protection effect against t-BHP in heart cells (LDH release). The assay is classed as cell-based. The following applies: H9C2, t-BHP 40 μM, 2 hours. As for the experimental part:
In order to identify the protective effect with regard to heart cells, H9C2 cells were divided into 96-well plates by 1.5×10^4, and cultured for 24 hours. The respective wells were treated with compounds of the examples 3× serial diluted to final concentrations of […], then cultured for 15 to 20 minutes. After treating with t-BHP with a final concentration of 40 μM, culturing was performed for 2 hours. In order to identify the protective effect of each compound, a Cytotoxicity LDH assay kit [Dojindo; CK12] was used to measure the degree of extracellular secretion of LDH. To describe briefly, at the time point 2-hour treatment of the cells with t-BHIP was completed, 100 μL each of the supernatant in which the cells were placed was collected and moved to a new 96-well plate. 100 μL/well of the assay buffer included in the kit (same amount as the sample) was added, followed by wrapping with foil and reacting for 30 minutes at room temperature. Observing the change in color of the sample, 50 μL/well of stop solution was added, then an iD3 spectrometer was used to measure absorbance at 490 nm and calculate the EC50 values. The EC50 of the compounds of the examples is preferably no more than 1.0 μM, and more preferably no more than 0.3 μM.
`COCc1cc(NCC2CCOCC2)c2[nH]c(-c3ccccc3)cc2c1` [Example 3, 5-(methoxymethyl)-2-phenyl-N-(tetrahydropyran-4-ylmethyl)-1H-indol-7-amine] displayed an EC50 of at most 300 nM. Compound `COCc1cc(NC2CCS(=O)(=O)CC2)c2[nH]c(-c3ccccc3)cc2c1` [Example 4, N-(1,1-dioxothian-4-yl)-5-(methoxymethyl)-2-phenyl-1H-indol-7-amine] yielded an EC50 of at most 300 nM.

Compound `COCc1cc(NC2CCN(S(C)(=O)=O)CC2)c2[nH]c(-c3ccccc3)cc2c1` [Example 5, 5-(methoxymethyl)-N-(1-methylsulfonyl-4-piperidyl)-2-phenyl-1H-indol-7-amine] returned an EC50 of at most 300 nM. `COCc1cc(NC2CCN(C(C)=O)CC2)c2[nH]c(-c3ccccc3)cc2c1` [Example 6, 1-[4-[[5-(methoxymethyl)-2-phenyl-1H-indol-7-yl]amino]-1-piperidyl]ethanone] registered an EC50 of at most 300 nM. In the case of `COCc1cc(NC2CCC(F)(F)CC2)c2[nH]c(-c3ccccc3)cc2c1` [Example 7, N-(4,4-difluorocyclohexyl)-5-(methoxymethyl)-2-phenyl-1H-indol-7-amine] it was at most 300 nM; in that of `COCc1cc(NCc2ccccc2)c2[nH]c(-c3ccccc3)cc2c1` [Example 8, N-benzyl-5-(methoxymethyl)-2-phenyl-1H-indol-7-amine], at most 300 nM. As to `COCc1cc(NC2CCN(C(=O)OC(C)(C)C)CC2)c2[nH]c(-c3ccccc3)cc2c1` [Example 9, tert-butyl 4-[[5-(methoxymethyl)-2-phenyl-1H-indol-7-yl]amino]-piperidine-1-carboxylate], the EC50 was at most 300 nM. With `COCc1cc(NC(C)C)c2[nH]c(-c3ccccc3)cc2c1` [Example 10, N-isopropyl-5-(methoxymethyl)-2-phenyl-1H-indol-7-amine], the concentration giving a half-maximal response (EC50) is at most 300 nM. For the compound `COCc1cc(NC2CCN(C)CC2)c2[nH]c(-c3ccccc3)cc2c1` [Example 11, 5-(methoxymethyl)-N-(1-methyl-4-piperidyl)-2-phenyl-1H-indol-7-amine], the EC50 is at most 300 nM. `COCCNc1cc(COC)cc2cc(-c3ccccc3)[nH]c12` [Example 12, N-(2-methoxyethyl)-5-(methoxymethyl)-2-phenyl-1H-indol-7-amine] gave a 50% effective concentration (EC50) of at most 300 nM. With `COCCCNc1cc(COC)cc2cc(-c3ccccc3)[nH]c12` [Example 13, 5-(methoxymethyl)-N-(3-methoxypropyl)-2-phenyl-1H-indol-7-amine] the figure was at most 300 nM; with `CC(C)(C)OCc1cc(NC2CCOCC2)c2[nH]c(-c3ccccc3)cc2c1` [Example 15, 5-(tert-butoxymethyl)-2-phenyl-N-tetrahydropyran-4-yl-1H-indol-7-amine], at most 300 nM; with `CC(C)(C)OCc1cc(NC2CCCC2)c2[nH]c(-c3ccccc3)cc2c1` [Example 16, 5-(tert-butoxymethyl)-N-cyclopentyl-2-phenyl-1H-indol-7-amine], at most 300 nM.

Regarding `CC(C)(C)OCc1cc(N(C2CCCC2)C2CCCC2)c2[nH]c(-c3ccccc3)cc2c1` [Example 17, 5-(tert-butoxymethyl)-N,N-dicyclopentyl-2-phenyl-1H-indol-7-amine], the EC50 was at most 300 nM. Compound `COCc1cc(NC2CCOCC2)c2[nH]cc(-c3ccccc3)c2c1` [Example 18, 5-(methoxymethyl)-3-phenyl-N-tetrahydropyran-4-yl-1H-indol-7-amine] had an EC50 of at most 300 nM. Consider `CCOCc1cc(NC2CCOCC2)c2[nH]c(-c3ccccc3)cc2c1` [Example 20, 5-(ethoxymethyl)-2-phenyl-N-(tetrahydro-2H-pyran-4-yl)-1H-indol-7-amine], for which the concentration giving a half-maximal response (EC50) was at most 300 nM. `CC(C)OCc1cc(NC2CCCC2)c2[nH]c(-c3ccccc3)cc2c1` [Example 21, N-cyclopentyl-5-(isopropoxymethyl)-2-phenyl-1H-indol-7-amine] displayed an EC50 of at most 300 nM. In the case of `CC(C)OCc1cc(NC2CCOCC2)c2[nH]c(-c3ccccc3)cc2c1` [Example 22, 5-(isopropoxymethyl)-2-phenyl-N-(tetrahydro-2H-pyran-4-yl)-1H-indol-7-amine] it was at most 300 nM.

Compound `CCOCc1cc(NC2CCCC2)c2[nH]c(-c3ccccc3)c(C#N)c2c1` [Example 23, 7-(cyclopentylamino)-5-(ethoxymethyl)-2-phenyl-1H-indole-3-carbonitrile] displayed a concentration giving a half-maximal response (EC50) of at most 300 nM. `CCOCc1cc(NC2CCOCC2)c2[nH]c(-c3ccccc3)c(C#N)c2c1` [Example 24, 5-(ethoxymethyl)-2-phenyl-7-((tetrahydro-2H-pyran-4-yl)amino)-1H-indole-3-carbonitrile] displayed an EC50 of 300 to 1000 nM. In the case of `CCOCc1cc(NC2CCCC2)c2[nH]c(-c3ccccc3)c(/C=N/OC)c2c1` [Example 25, (E)-7-(cyclopentylamino)-5-(ethoxymethyl)-2-phenyl-1H-indole-3-carbaldehyde O-methyl oxime] it was at most 300 nM; in that of `CCOCc1cc(N(C2CCOCC2)C2CCOCC2)c2[nH]c(-c3ccccc3)c(/C=N/OC)c2c1` [Example 26, (E)-7-(bis(tetrahydro-2H-pyran-4-yl)amino)-5-(ethoxymethyl)-2-phenyl-1H-indole-3-carbaldehyde O-methyl Oxime], above 1000 nM. The compound `CCOCc1cc(NC2CCOCC2)c2[nH]c(-c3ccccc3)c(/C=N/OC)c2c1` [Example 27] came in with an EC50 of at most 300 nM. With `CCOCc1cc(NC2CCCC2)c2c(c1)c(COC)c(-c1ccccc1)n2C` [Example 28, N-cyclopentyl-5-(ethoxymethyl)-3-(methoxymethyl)-1-methyl-2-phenyl-1H-indol-7-amine] the figure was 300 to 1000 nM; with `CCOCc1cc(NC2CCCC2)c2[nH]c(-c3ccccc3)c(/C=C/C(=O)OC)c2c1` [Example 30, methyl (E)-3-(7-(cyclopentylamino)-5-(ethoxymethyl)-2-phenyl-1H-indol-3-yl)acrylate], at most 300 nM. In the case of `CCOCc1cc(NC2CCOCC2)c2[nH]c(-c3ccccc3)c(/C=C/C(=O)OC)c2c1` [Example 31, Methyl (E)-3-(5-(ethoxymethyl)-2-phenyl-7-((tetrahydro-2H-pyran-4-yl)amino)-1H-indole-3-yl)acrylate], the EC50 is at most 300 nM.

Compound `CCOCc1cc(NC2CCCC2)c2[nH]c(-c3ccccc3)c(C(=O)C(F)(F)F)c2c1` [Example 32, 1-(7-(cyclopentylamino)-5-(ethoxymethyl)-2-phenyl-1H-indol-3-yl)-2,2,2-trifluoroethan-1-one] gave an EC50 of at most 300 nM. `CCOCc1cc(NC2CCOCC2)c2[nH]c(-c3ccccc3)c(C(=O)C(F)(F)F)c2c1` [Example 33, 1-(5-(ethoxymethyl)-2-phenyl-7-((tetrahydro-2H-pyran-4-yl)amino)-1H-indol-3-yl)-2,2,2-trifluoro-1-one]: the concentration giving a half-maximal response (EC50) is 300 to 1000 nM. Take `CCOCc1cc(NC2CCCC2)c2[nH]c(-c3ccccc3)c(/C=C/C(=O)c3ccccc3)c2c1` [Example 34, (E)-3-(7-(cyclopentylamino)-5-(ethoxymethyl)-2-phenyl-1H-indol-3-yl)-1-phenylpropan-2-ene-1-one]: the EC50 is at most 300 nM.

`CCOCc1cc(NC2CCOCC2)c2[nH]c(-c3ccccc3)c(/C=C/C(=O)c3ccccc3)c2c1` [Example 35, (E)-3-(5-(ethoxymethyl)-2-phenyl-7-((tetrahydro-2H-pyran-4-yl)amino)-1H-indol-3-yl)-1-phenylpropan-2-en-1-one]: the concentration giving a half-maximal response (EC50) is at most 300 nM. Regarding `CCOCc1cc(NC2CCCC2)c2[nH]c(-c3ccccc3)c(C(O)C(F)(F)F)c2c1` (stereo not shown) [Example 36, 1-(7-(cyclopentylamino)-5-(ethoxymethyl)-2-phenyl-1H-indol-3-yl)-2,2,2-trifluoroethan-1-ol], the concentration for a half-maximal effect (EC50) is at most 300 nM. In the case of `CCOCc1cc(NC2CCOCC2)c2[nH]c(-c3ccccc3)c(C(O)C(F)(F)F)c2c1` (stereo not shown) [Example 37, 1-(5-(ethoxymethyl)-2-phenyl-7-((tetrahydro-2H-pyran-4-yl)amino)-1H-indol-3-yl)-2,2,2-trifluoro-1-ol] it was 300 to 1000 nM. `CCOCc1cc(NC2CCCC2)c2[nH]c(-c3ccccc3)c(CCC(=O)OC)c2c1` [Example 38, Methyl 3-(7-(cyclopentylamino)-5-(ethoxymethyl)-2-phenyl-1H-indol-3-yl)propanoate] showed an EC50 of at most 300 nM.

`CCOCc1cc(NC2CCOCC2)c2[nH]c(-c3ccccc3)c(CCC(=O)OC)c2c1` [Example 39, Methyl 3-(5-(ethoxymethyl)-2-phenyl-7-((tetrahydro-2H-pyran-4-yl)amino)-1H-indol-3-yl)propanoate]: the EC50 was at most 300 nM. The compound `CCOCc1cc(NC2CCCC2)c2[nH]c(-c3ccccc3)c(CCC(=O)O)c2c1` [Example 40, 3-(7-(cyclopentylamino)-5-(ethoxymethyl)-2-phenyl-1H-indol-3-yl)propanoic acid] came in with an EC50 above 1000 nM. With `COCCc1cc(NC2CCCC2)c2[nH]c(-c3ccccc3)cc2c1` [Example 42, N-cyclopentyl-5-(2-methoxyethyl)-2-phenyl-1H-indol-7-amine] the figure was at most 300 nM; with `CCOCc1cc(NC2CCCC2)c2[nH]c(-c3ccccc3)c(-c3nccn3C(=O)OCC)c2c1` [Example 43, Ethyl 2-(7-(cyclopentylamino)-5-(ethoxymethyl)-2-phenyl-1H-indol-3-yl)-1H-imidazole-1-carboxylate], 300 to 1000 nM.
